Assay results from ChEMBL document CHEMBL1126889, “Dopamine receptor modulation by a highly rigid spiro bicyclic peptidomimetic of Pro-Leu-Gly-NH2” (J Med Chem, 1993).
Residues, ends and D or L forms follow the SMILES beside them.

Assays:
[1] = biological target: T1, Dopamine receptor (Bos taurus) (UniProt Q95136+P20288); test: Tested for ability to enhance the binding of the dopamine receptor agonist [3H]-ADTN to striatal dopamine receptors in vitro at 10 e-6 M; format: protein assay
[2] = biological target: T1, Dopamine receptor (Bos taurus); test: Tested for ability to enhance the binding of the dopamine receptor agonist [3H]ADTN to striatal dopamine receptors in vitro; format: protein assay

Row | SMILES | Binding [1] | Binding [2]
1 | NC(=O)[C@H]1CS[C@@H]2C[C@]3(CCCN3C(=O)C3CCCN3)C(=O)N12 (some centres not stated) | 40% | –
2 | CC(C)C[C@H](NC(=O)[C@@H]1CCCN1)C(=O)NCC(N)=O (H-Pro-Leu-Gly-NH2) | – | 26%
